Laboratory results as given in US11607422B2, “Uttroside B and derivatives thereof as therapeutics for hepatocellular carcinoma” (Rajiv Gandhi Centre for Biotechnology, an Autonomous …, priority 2016, dated 2023).
pIC50: −log10 of the molar value.

Experiments:
AP-1 in HepG2 cells = assay: Electrophoretic mobility shift assay of AP-1; format: cell-based, human; conditions: HepG2, EMSA
Protocol: Stocks of crude extracts and isolated compound of S. nigrum was prepared in DMSO for the in vitro studies and stored at −20° C. The DMSO concentration in all studies, including controls, was ≤0.2%. Cell viability assay was performed after 72 h of drug treatment while whole cell lysate preparation and cell cycle analysis were done after 24 h and 48 h of drug treatment. For studying NF-κB and AP-1, Uttroside B was incubated for 2 h before extraction.
Radiolabeling of oligonucleotide probes for electrophoretic mobility shift assay:HepG2 Cells were treated with Uttroside B for two hours, scraped and suspended in 150 μL of lysis buffer (10 mM HEPES(pH 7.9), 10 mM KCl, 0.1 mM EDTA, 0.1 mM EGTA, 1 mM DTT, 0.5 mMphenylmethylsulfonyl fluoride, 2 μg/mL leupeptin, 2 μg/mL aprotinin, 0.5 mg/ml benzamidine) for 30 min, after which 4.5 μl of 10% Nonidet P-40 was added. […]

[1] = test system: MAPK pathway in HepG2 cells; assay: Western blot of MAPK phosphorylation (p-JNK, p-38, p-42/44); format: cell-based, human
Protocol: FIGS. 4A-4E are images showing Uttroside B inhibits MAPK and mTOR signaling, some of the crucial survival signals in liver cancer. […] HepG2 cells were treated with Uttroside B for different time intervals (0-240 min) and the whole cell lysate was resolved on a 10% gel and immunoblotted against phospho-ERK1/2 and phospho-Akt antibodies. Taxol was used as a positive control. […] HepG2 cells were treated with Uttroside B at different time intervals and the whole cell lysate was resolved on an 8% gel and immunoblotted against phospho-mTOR (2448) and phospho-mTOR (2481) antibodies.
Western blot analysis. Approximately 0.5×10^6 cells were grown on 60 mm culture plates and exposed to drugs as indicated for the desired time. The cells were then scraped out, washed in ice cold 1× PBS and pelleted down at 13000 rpm for 2 min. […]

LC3 in HepG2 cells = assay: Autophagy flux (LC3I to LC3II conversion) with Bafilomycin; format: cell-based, human; conditions: Uttroside B 500 nM + Bafilomycin 10 nM, 24 h
Protocol: Concentration dependent effect of BafilomycinAl on the endogenous conversion of LC3I to LC3II in HepG2 cells. Cells were treated with Bafilomycin Al at different concentration and the whole cell lysate was resolved on a 15% gel and immunoblotted against LC3 antibody. Uttroside B is an autophagy inducer in HepG2 cells as analysed by autophagy flux using Bafilomycin Al. […] The increase in LC3 II could not be considered as a fool proof of autophagic induction because a blockage in any step leading from autophagosome maturation to its fusion with lysosomes could cause its accumulation. So, the effect of Uttroside B in HepG2 cells were analyzed for autophagy flux, a more accurate read out of autophagy on co-treatment with Bafilomycin, an autophagy-lysosome inhibitor. Bafilomycin A, blocks autophagy by blocking the fusion of autophagosome with lysosome which cause the accumulation of autophagosome or LC3. First, the concentration of Bafilomycin Al required for saturating the blockage of autophagy-lysosome fusion was standardized. The efficacy of Bafilomycin Al, in terms of blocking autophagosome degradation in HepG2, was found peaked at 10 nM, beyond which no further accumulation of LC3 II was noted, which matched with the earlier reports.^32,37,38 […]

HCT-116 = conditions: literature ref 13; read-out: IC50, cytotoxicity against HCT-116 (colon cancer cells); cited from earlier work
HeLa cells = conditions: literature ref 12; read-out: IC50, cytotoxicity against HeLa (cervical cancer cells); cited from earlier work

C[C@H](CC[C@@]1(O)O[C@H]2C[C@H]3[C@@H]4CC[C@H]5C[C@@H](O[C@@H]6O[C@H](CO)[C@H](O[C@@H]7O[C@H](CO)[C@@H](O)[C@H](O[C@@H]8OC[C@@H](O)[C@H](O)[C@H]8O)[C@H]7O[C@@H]7O[C@H](CO)[C@@H](O)[C@H](O)[C@H]7O)[C@H](O)[C@H]6O)CC[C@]5(C)[C@H]4CC[C@]3(C)[C@H]2[C@@H]1C)CO[C@@H]1O[C@H](CO)[C@@H](O)[C@H](O)[C@H]1O [Uttroside B]
AP-1 (downstream target of MAPK signaling) (AP-1 in HepG2 cells): down-regulated
PMA-induced activation of p-JNK, p-38 and p-42/44 [1]: down-regulated
basal activation of MAPK pathway (p-42/44, p-JNK) [1]: significantly down-regulated
LC3II on co-treatment with Bafilomycin (LC3 in HepG2 cells): surplus accumulation of LC3II
pIC50 (HCT-116): 5.63
pIC50 (HeLa cells): 4.81
